Results published in patent publication US20250134952A1, “METHODS FOR IMPROVING THE EFFICACY OF HDAC INHIBITOR THERAPY AND PREDICTING THE RESPONSE TO TREATMENT WITH HDAC INHIBITOR” (INSTITUT NATIONAL DE LA SANTÉ ET DE LA RECHERCHE MÉDICALE, priority 2021, published 2025).

Assays:
[1] = test system: MCF7shctrl and MCF7shTau subclones; assay: Apoptosis by flow cytometry of PI-positive and Annexin-V-positive cells; format: cell-based, human; conditions: 100 nM TSA, 48 h
Method: FIG. 1: Tau inhibition increases MCF7 breast cancer cell line sensitivity to TSA. (A) Tau protein expression in MCF7, MCF7shctrl and shTau were quantify by Elisa. (B) Effect of 100 nM TSA (48 h) on cell death in the MCF7shctrl and MCF7shTau subclones. Cell death was determined by staining and flow cytometric analysis as described in the materials and methods. (C) Effect of 100 nM TSA (48 h) on apoptosis in the MCF7shctrl and MCF7shTau subclones. Apoptosis was determined by flow cytometric analysis of the PI-positive and Annexin-V-positive cells as described in the materials and methods. (D) Cell cycle distribution was determined by FACS analysis of combined propidium iodide and EdU staining in MCF7shctrl and MCF7shTau in the absence or presence 100 nM TSA, 48 h. Data are mean±SD **P<0.01***P<0.001. […]
SH-SY5Y human neuroblastoma cells expressing Tau4R tagged with the streptavidin-binding peptide (SBP) (referred as SH-SY5Y-(SBP)Tau4R) (Chauderlier et al., 2018), SH-SY5Y-Tet-on-Tau4R, Hela cells, MCF7 and MDA-MB-231 were cultured in Dulbecco's Modified Eagle's Medium with 10% fetal bovine serum, 2 mM L-glutamine and 50 U/ml penicillin/streptomycin (Gibco) at 37° C. in 5% CO2 humidified air. […] For stable clones, luciferase activities were measured using the luciferase assay system (Promega) and normalized against protein concentration. […]

[2] = test system: GAL4UAS responsive luciferase reporter Hela stable cell line; assay: GAL4UAS responsive luciferase reporter assay; format: cell-based; conditions: for reduction of luciferase activity by Tau4R overexpression: wild-type Tau4R transfected
Method: (A) Representative confocal sections of MCF7shctrl and shTau cells untreated or treated with 100 nM TSA for 24 h. […] (B) Quantification of HP1α clusters per nuclei visualized as described previously and realized on three independent experiments. (C) GADD45a and (D) p21 (CDKN1a) expression in MCF7shctrl and shTau cells untreated or treated with 100 nM TSA for 24 h were analyzed by real-time PCR and normalized to RPLO. Results are expressed, relative to the basal activity set to 1, as the mean±SD of three independent assays. (E) Tau tethering prevents adjacent reporter gene activity induced by TSA. GAL4UAS responsive luciferase reporter Hela stable cell line was transfected with GAL4DBD (GAL4) or GAL4DBD-Tau4R and then, 24 h later, treated with TSA (600 nM) for 24 h. The luciferase activity was determined as described in the Materials and Methods. (F) Ectopic Tau4R expression prevents adjacent reporter gene activity induced by TSA. The GAL4UAS responsive luciferase reporter Hela stable cell line was transfected with a plasmid encoding Tau4R for 24 h. Then, cells were treated with an increasing concentration of TSA, as indicated for 24 h. The luciferase activity was determined as described in the Materials and Methods. Data are mean±SD **P<0.01***P<0.001 vs. control.
SH-SY5Y human neuroblastoma cells expressing Tau4R tagged with the streptavidin-binding peptide (SBP) (referred as SH-SY5Y-(SBP)Tau4R) (Chauderlier et al., 2018), SH-SY5Y-Tet-on-Tau4R, Hela cells, MCF7 and MDA-MB-231 were cultured in Dulbecco's Modified Eagle's Medium with 10% fetal bovine serum, 2 mM L-glutamine and 50 U/ml penicillin/streptomycin (Gibco) at 37° C. in 5% CO2 humidified air. Transient and stable transfections experiments were performed using the lipofectamine 3000 reagent (Invitrogen). Transient luciferase assays were performed with the dual-luciferase assay system (Promega). For stable clones, luciferase activities were measured using the luciferase assay system (Promega) and normalized against protein concentration. To isolate stably transfected clones, Hela cells were transfected with the pGL4.31[luc2P/GAL4 UAS/Hygro](referred to as the GAL4UAS stable Hela cell line) and selected with hygromycin (200 μg/ml). Of 6 clones tested for reporter activity, one clone was chosen for further studies. MCF7 and MDA-MB-231 cells were transfected with short hairpin Tau or RNA Ctrl vectors and selected with puromycin ([…]). Clones were isolated and tested for Tau expression.
To directly probe how Tau prevents TSA-induced chromatin remodeling and gene expression, we next used Hela cells as they lack endogenous Tau. First, we generated a stable GAL4UAS-responsive luciferase reporter Hela clone that we subsequently selected for trichostatin-induced luciferase activity. In our preliminary experiments we found the lowest dose of TSA inducing maximal luciferase activity was 600 nM and we used this concentration in the following experiments. In addition, by performing salt extraction on nuclei, we found only Tau4R isoforms were tightly bound to chromatin and could potentially impact directly on chromatin structure (data not shown). We therefore targeted Tau4R to UAS responsive elements by fusing Tau4R to the heterologous DNA-binding domain GAL4 and transfected this plasmid into Hela stable clone. […] We next wondered if this effect was due to the tethering of Tau4R to the promoter or whether this was independent of Tau4R fusion to GAL4. […]

CC(/C=C/C(=O)NO)=C\[C@@H](C)C(=O)c1ccc(N(C)C)cc1 [TSA, 2,4-Heptadienamide, 7-[4-(dimethylamino)phenyl]-N-hydroxy-4,6-dimethyl-7-oxo-, (2E,4E,6R)-]
apoptosis ([1]; Tau-knockdown cells (MCF7shTau)): 48% | apoptosis ([1]; sh-ctrl cells (MCF7shctrl)): 30% | reduction of luciferase activity by Tau4R overexpression ([2]; 100 nM TSA, 24 h): around 50% | reduction of luciferase activity by Tau4R overexpression ([2]; 300 nM TSA, 24 h): around 50% | reduction of luciferase activity by Tau4R overexpression ([2]; 600 nM TSA, 24 h): no reduction | reduction of TSA-induced luciferase activity in the presence of GAL-Tau4R ([2]; TSA 600 nM, 24 h, GAL4DBD-Tau4R transfected): 50% | lowest dose of TSA inducing maximal luciferase activity ([2]; preliminary experiments, Hela stable clone): 600 nM
